Test results taken from ChEMBL document CHEMBL1122199, “Structure-activity relationships in potentially hallucinogenic N,N-dialkyltryptamines substituted in the benzene moiety” (J Med Chem, 1982).
Values joined by “and” are separate entries in the source; they are usually repeats but may differ in a detail not shown here. Identical values can stand only once.

Experiments:
Rattus norvegicus [1] = test: The behavior disruption data as percent change in response from drug versus saline at dose 2.5mg/Kg, expressed as L (Late).; assay type: functional
Rattus norvegicus [2] = test: The behavior disruption data as percent change in response from drug versus saline at dose 1.25mg/Kg, expressed as E (efficient); assay type: functional
Rattus norvegicus [3] = test: The behavior disruption data as percent change in response from drug versus saline at dose 1.25mg/Kg, expressed as L (Late).; assay type: functional
[4] = Hill coefficient of the compound
Rattus norvegicus [5] = test: The behavior disruption data as percent change in response from drug versus saline at dose 1.25 mg/kg, expressed as B/P (burst/premature).; assay type: functional
Rattus norvegicus [6] = test: The behavior disruption data as percent change in response from drug versus saline at dose 2.5mg/Kg, expressed as E (efficient); assay type: functional
[7] = Ability to displace [3H]LSD binding to Lysergic acid diethylamide receptor site using 1 uM 5-HT as masking ligand; set-up: species or system Cavia porcellus
Rattus norvegicus [8] = test: The behavior disruption data as percent change in response from drug versus saline at dose 2.5 mg/kg, expressed as B/P (burst/premature).; assay type: functional
[9] = biological target: Serotonin (5-HT) receptor; test: Ability to displace [3H]5-HT binding to 5-hydroxytryptamine receptor site using 1 uM LSD as masking ligand; assay type: protein assay, Cavia porcellus
[10] = biological target: Serotonin (5-HT) receptor; test: Ability to displace [3H]5-HT binding from 5-hydroxytryptamine receptor site using 1 uM LSD as masking ligand; assay type: protein assay, Cavia porcellus
Rattus norvegicus [11] = test: The behavior disruption data as percent change in response from drug versus saline at dose 0.5 mg/Kg, expressed as L (Late).; assay type: functional
Rattus norvegicus [12] = test: The behavior disruption data as percent change in response from drug versus saline at dose 1mg/Kg, expressed as L (Late).; assay type: functional
Rattus norvegicus [13] = test: The behavior disruption data as percent change in response from drug versus saline at dose 0.5 mg/Kg, expressed as E (efficient); assay type: functional
Rattus norvegicus [14] = test: The behavior disruption data as percent change in response from drug versus saline at dose 0.5 mg/kg, expressed as B/P (burst/premature).; assay type: functional
Rattus norvegicus [15] = test: The behavior disruption data as percent change in response from drug versus saline at dose 1mg/Kg, expressed as E (efficient); assay type: functional
Rattus norvegicus [16] = test: The behavior disruption data as percent change in response from drug versus saline at dose 1 mg/kg, expressed as B/P (burst/premature).; assay type: functional
Rattus norvegicus [17] = test: The behavior disruption data as percent change in response from drug versus saline at dose 15 mg/kg, expressed as B/P (burst/premature).; assay type: functional
Rattus norvegicus [18] = test: The behavior disruption data as percent change in response from drug versus saline at dose 10mg/Kg, expressed as L (Late).; assay type: functional
Rattus norvegicus [19] = test: The behavior disruption data as percent change in response from drug versus saline at dose 15mg/Kg, expressed as L (Late).; assay type: functional
Rattus norvegicus [20] = test: The behavior disruption data as percent change in response from drug versus saline at dose 10 mg/kg, expressed as B/P (burst/premature).; assay type: functional
Rattus norvegicus [21] = test: The behavior disruption data as percent change in response from drug versus saline at dose 10mg/Kg, expressed as E (efficient); assay type: functional
Rattus norvegicus [22] = test: The behavior disruption data as percent change in response from drug versus saline at dose 5mg/Kg, expressed as L (Late).; assay type: functional
Rattus norvegicus [23] = test: The behavior disruption data as percent change in response from drug versus saline at dose 5mg/Kg, expressed as E (efficient); assay type: functional
Rattus norvegicus [24] = test: The behavior disruption data as percent change in response from drug versus saline at dose 5 mg/kg, expressed as B/P (burst/premature).; assay type: functional
Rattus norvegicus [25] = test: The behavior disruption data as percent change in response from drug versus saline at dose 15mg/Kg, expressed as E (efficient); assay type: functional
Rattus norvegicus [26] = test: The behavior disruption data as percent change in response from drug versus saline at dose 2mg/kg, expressed as B/P (burst/premature).; assay type: functional
Rattus norvegicus [27] = test: The behavior disruption data as percent change in response from drug versus saline at dose 2mg/Kg, expressed as E (efficient); assay type: functional
Rattus norvegicus [28] = test: The behavior disruption data as percent change in response from drug versus saline at dose 4mg/Kg, expressed as E (efficient); assay type: functional
Rattus norvegicus [29] = test: The behavior disruption data as percent change in response from drug versus saline at dose 4 mg/kg, expressed as B/P (burst/premature).; assay type: functional
Rattus norvegicus [30] = test: The behavior disruption data as percent change in response from drug versus saline at dose 8mg/Kg, expressed as E (efficient); assay type: functional
Rattus norvegicus [31] = test: The behavior disruption data was measured as percent change in response from drug versus saline at dose 2 mg/kg, activity expressed as L (Late).; assay type: functional
Rattus norvegicus [32] = test: The behavior disruption data as percent change in response from drug versus saline at dose 4mg/Kg, expressed as L (Late).; assay type: functional
Rattus norvegicus [33] = test: The behavior disruption data as percent change in response from drug versus saline at dose 8 mg/kg, expressed as B/P (burst/premature).; assay type: functional
Rattus norvegicus [34] = test: The behavior disruption data as percent change in response from drug versus saline at dose 8mg/Kg, expressed as L (Late).; assay type: functional
Rattus norvegicus [35] = test: The behavior disruption data as percent change in response from drug versus saline at dose 2mg/Kg, expressed as L (Late).; assay type: functional
Rattus norvegicus [36] = test: The behavior disruption data as percent change in response from drug versus saline at dose 0.25mg/Kg, expressed as L (Late).; assay type: functional
Rattus norvegicus [37] = test: The behavior disruption data as percent change in response from drug versus saline at dose 0.25mg/Kg, expressed as E (efficient); assay type: functional
Rattus norvegicus [38] = test: The behavior disruption data as percent change in response from drug versus saline at dose 0.25 mg/kg, expressed as B/P (burst/premature).; assay type: functional

SMILES	Hill coefficient [4]	IC50 [7] [M l-1]	IC50 [9] [M l-1]	Change in response (Rattus norvegicus [11]) [%]	Change in response (Rattus norvegicus [12]) [%]	Change in response (Rattus norvegicus [13]) [%]	Change in response (Rattus norvegicus [14]) [%]	Change in response (Rattus norvegicus [15]) [%]	Change in response (Rattus norvegicus [16]) [%]	Change in response (Rattus norvegicus [22]) [%]	Change in response (Rattus norvegicus [23]) [%]	Change in response (Rattus norvegicus [24]) [%]	Change in response (Rattus norvegicus [26]) [%]	Change in response (Rattus norvegicus [27]) [%]	Change in response (Rattus norvegicus [35]) [%]	also measured
CC(C)N(CCc1c[nH]c2ccc3c(c12)OCO3)C(C)C	0.343	2.88e-6	2.24e-6													Change in response (Rattus norvegicus [1]): 11%; Change in response (Rattus norvegicus [2]): 28%; Change in response (Rattus norvegicus [3]): 74%; Change in response (Rattus norvegicus [5]): 24%; Change in response (Rattus norvegicus [6]): 49%; Change in response (Rattus norvegicus [8]): 38%
CSc1ccc2[nH]cc(CCN(C)C)c2c1	0.91 and 0.995	1.44e-7		7	49	26	13	65	16							IC50 [10]: 1e-6 M l-1
CN(C)CCc1c[nH]c2cc3c(cc12)OCO3	0.95 and 1.01	1.78e-6	0.0000407							2	11	9				Change in response (Rattus norvegicus [17]): 22%; Change in response (Rattus norvegicus [18]): 9%; Change in response (Rattus norvegicus [19]): 19%; Change in response (Rattus norvegicus [20]): 19%; Change in response (Rattus norvegicus [21]): 26%; Change in response (Rattus norvegicus [25]): 41%
COc1ccc2c(CCN(C)C)c[nH]c2c1										21	50	29				Change in response (Rattus norvegicus [1]): 8%; Change in response (Rattus norvegicus [2]): 21%; Change in response (Rattus norvegicus [3]): 5%; Change in response (Rattus norvegicus [5]): 25%; Change in response (Rattus norvegicus [6]): 34%; Change in response (Rattus norvegicus [8]): 26%
CSc1cccc2[nH]cc(CCN(C)C)c12	0.75 and 1.01	0.0000125	0.000151		1			1	0				8	11		Change in response (Rattus norvegicus [28]): 27%; Change in response (Rattus norvegicus [29]): 20%; Change in response (Rattus norvegicus [30]): 52%; Change in response (Rattus norvegicus [31]): 3%; Change in response (Rattus norvegicus [32]): 6%; Change in response (Rattus norvegicus [33]): 36%; Change in response (Rattus norvegicus [34]): 15%
COc1ccc2[nH]cc(CCN(C)C)c2c1 [MEBUFOTENIN]					5			11	6				19	26	9	
CSc1cccc2[nH]cc(CCN(C(C)C)C(C)C)c12	0.7									4	5	1				Change in response (Rattus norvegicus [18]): 9%; Change in response (Rattus norvegicus [20]): 23%; Change in response (Rattus norvegicus [21]): 32%
CSc1ccc2c(CCN(C)C)c[nH]c2c1	0.97 and 0.57	7.59e-6	0.0000408	4	4	8	4	13	8				20	30	19	Change in response (Rattus norvegicus [28]): 48%; Change in response (Rattus norvegicus [29]): 34%; Change in response (Rattus norvegicus [32]): 14%
CN(C)CCc1c[nH]c2ccc3c(c12)OCO3				5	5	5	0	10	5				11	31	20	Change in response (Rattus norvegicus [36]): 5%; Change in response (Rattus norvegicus [37]): 3%; Change in response (Rattus norvegicus [38]): 3%
CC(C)N(CCc1c[nH]c2cc3c(cc12)OCO3)C(C)C	0.642	0.00001								2	4	2				Change in response (Rattus norvegicus [1]): 2%; IC50 [10]: 0.000933 M l-1; Change in response (Rattus norvegicus [2]): 0%; Change in response (Rattus norvegicus [18]): 16%; Change in response (Rattus norvegicus [3]): 1%; Change in response (Rattus norvegicus [20]): 29%; Change in response (Rattus norvegicus [5]): 1%; Change in response (Rattus norvegicus [21]): 45%; Change in response (Rattus norvegicus [6]): 2%; Change in response (Rattus norvegicus [8]): 0%
COc1cccc2[nH]cc(CCN(C)C)c12				2	6	2	0	25	9				10	27	7	
